pIC50, pKi: −log10 of the molar value. The source made the active and inactive calls. The rule behind the calls is not given here.
Assays:
[1] = molecular target: T1, GABA transporter 4 (Mus musculus, UniProt P31650); assay: Inhibition of mouse GAT4 transfected in HEK293 cells assessed as reduction in [3H]-GABA uptake; type: cell-based
T1 sequence (P31650 whole entry): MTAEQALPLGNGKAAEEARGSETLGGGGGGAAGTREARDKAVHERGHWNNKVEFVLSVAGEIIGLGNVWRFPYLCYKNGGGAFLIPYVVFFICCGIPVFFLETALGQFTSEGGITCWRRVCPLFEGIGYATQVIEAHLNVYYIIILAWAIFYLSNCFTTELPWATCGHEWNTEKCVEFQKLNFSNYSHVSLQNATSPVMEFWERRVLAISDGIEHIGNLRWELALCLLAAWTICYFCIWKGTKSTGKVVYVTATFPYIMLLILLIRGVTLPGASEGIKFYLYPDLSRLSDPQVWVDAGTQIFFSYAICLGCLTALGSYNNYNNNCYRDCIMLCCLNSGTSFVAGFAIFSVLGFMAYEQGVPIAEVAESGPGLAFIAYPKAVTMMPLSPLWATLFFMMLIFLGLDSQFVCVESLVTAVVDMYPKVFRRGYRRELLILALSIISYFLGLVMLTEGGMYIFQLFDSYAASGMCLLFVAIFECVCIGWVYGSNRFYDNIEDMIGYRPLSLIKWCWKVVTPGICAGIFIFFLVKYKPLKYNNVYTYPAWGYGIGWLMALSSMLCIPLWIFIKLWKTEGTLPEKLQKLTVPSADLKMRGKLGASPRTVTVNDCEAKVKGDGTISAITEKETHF

[2] = molecular target: T2, GABA transporter 2 (Mus musculus) (UniProt P31651); assay: Inhibition of mouse GAT2 transfected in HEK293 cells assessed as reduction in [3H]-GABA uptake by measuring residual activity at 100 uM relative to control; type: cell-based
T2 sequence (whole entry): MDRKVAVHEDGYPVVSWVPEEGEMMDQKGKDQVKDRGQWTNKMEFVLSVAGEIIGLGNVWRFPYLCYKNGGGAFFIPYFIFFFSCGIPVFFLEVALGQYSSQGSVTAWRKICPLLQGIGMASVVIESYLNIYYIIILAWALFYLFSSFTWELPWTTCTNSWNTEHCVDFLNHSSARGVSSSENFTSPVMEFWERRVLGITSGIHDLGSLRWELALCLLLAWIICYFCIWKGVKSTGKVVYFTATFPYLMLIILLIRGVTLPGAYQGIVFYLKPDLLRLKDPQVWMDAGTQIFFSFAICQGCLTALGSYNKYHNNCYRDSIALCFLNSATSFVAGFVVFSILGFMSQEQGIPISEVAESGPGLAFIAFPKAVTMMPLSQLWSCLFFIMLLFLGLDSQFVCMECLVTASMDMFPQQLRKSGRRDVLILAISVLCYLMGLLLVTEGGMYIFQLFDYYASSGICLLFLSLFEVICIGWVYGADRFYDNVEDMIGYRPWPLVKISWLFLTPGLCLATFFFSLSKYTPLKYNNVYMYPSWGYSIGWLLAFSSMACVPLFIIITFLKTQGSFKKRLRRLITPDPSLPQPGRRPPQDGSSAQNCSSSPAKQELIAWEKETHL

[3] = tested on: HEK293; assay: Inhibition of mouse GAT3 transfected in HEK293 cells assessed as reduction in [3H]-GABA uptake by measuring residual activity at 100 uM relative to control; type: cell-based
[4] = molecular target: T3, Sodium- and chloride-dependent GABA transporter 1 (Mus musculus, UniProt P31648); assay: Inhibition of mouse GAT1 expressed in HEK293 cells assessed as reduction in [3H]-GABA uptake; type: cell-based; conditions: for pIC50: read-out: IC50
[5] = Inhibition of mouse GAT3 transfected in HEK293 cells assessed as reduction in [3H]-GABA uptake; type: cell-based
[6] = molecular target: T4, GABA transporter 2 (Mus musculus, UniProt P31651); assay: Inhibition of mouse GAT2 transfected in HEK293 cells assessed as reduction in [3H]-GABA uptake; type: cell-based
T4 sequence (P31651 whole entry): T2 sequence (whole entry)

[7] = molecular target: T4, GABA transporter 2; assay: Inhibition of mouse GAT2 transfected in HEK293 cells assessed as reduction in [3H]-GABA uptake preincubated for 25 mins followed by [3H]-GABA addition and measured after 10 mins by liquid scintillation counting analysis; type: cell-based; conditions: read-out: pIC50 (converted)
[8] = molecular target: Cholinesterase (Equus caballus) (UniProt P81908); assay: Mixed type inhibition of equine serum BuChE using varying concentrations of butyrylthiocholine iodide as substrate preincubated for 5 mins followed by substrate addition and measured after 5 mins by Ellman's method based Lineweaver-Burk plot analysis; conditions: time 10.0 min
Cholinesterase (Equus caballus), sequence (P81908 whole entry): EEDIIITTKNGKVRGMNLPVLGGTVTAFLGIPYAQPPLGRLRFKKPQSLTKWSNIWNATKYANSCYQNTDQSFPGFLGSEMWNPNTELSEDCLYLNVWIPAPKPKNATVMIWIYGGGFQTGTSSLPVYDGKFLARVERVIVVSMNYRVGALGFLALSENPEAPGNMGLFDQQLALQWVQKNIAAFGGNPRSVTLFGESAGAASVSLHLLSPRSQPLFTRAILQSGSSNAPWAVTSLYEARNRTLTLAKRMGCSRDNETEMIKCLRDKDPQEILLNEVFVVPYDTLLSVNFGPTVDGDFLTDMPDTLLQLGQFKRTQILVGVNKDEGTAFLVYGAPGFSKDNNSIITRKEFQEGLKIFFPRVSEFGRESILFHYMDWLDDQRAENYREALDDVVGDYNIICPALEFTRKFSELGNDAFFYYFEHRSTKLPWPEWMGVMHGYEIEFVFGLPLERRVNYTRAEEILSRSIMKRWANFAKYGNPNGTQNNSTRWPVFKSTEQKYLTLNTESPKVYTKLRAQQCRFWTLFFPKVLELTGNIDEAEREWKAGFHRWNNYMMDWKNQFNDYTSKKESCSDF

[9] = molecular target: Cholinesterase (Equus caballus) (UniProt P81908); assay: Mixed type inhibition of equine serum BuChE using varying concentrations of butyrylthiocholine iodide as substrate preincubated for 5 mins followed by substrate addition and measured after 5 mins by Ellman's method based Cornish-Bowden plot analysis; conditions: time 10.0 min
[10] = molecular target: Cholinesterase (Equus caballus, UniProt P81908)
Cholinesterase, sequence (P81908 whole entry): as above
Description: Inhibition of equine serum BuChE using butyrylthiocholine iodide as substrate preincubated for 5 mins followed by substrate addition and measured after 5 mins by DTNB reagent based Ellman's method

[11] = molecular target: Amyloid-beta precursor protein (Homo sapiens) (UniProt P05067); assay: Inhibition of amyloid beta42 (unknown origin) aggregation expressed in Escherichia coli BL21 (DE3) at 10 uM measured every 5 mins by ThT fluorescence based assay relative to control
Amyloid-beta precursor protein (Homo sapiens), sequence (P05067 whole entry): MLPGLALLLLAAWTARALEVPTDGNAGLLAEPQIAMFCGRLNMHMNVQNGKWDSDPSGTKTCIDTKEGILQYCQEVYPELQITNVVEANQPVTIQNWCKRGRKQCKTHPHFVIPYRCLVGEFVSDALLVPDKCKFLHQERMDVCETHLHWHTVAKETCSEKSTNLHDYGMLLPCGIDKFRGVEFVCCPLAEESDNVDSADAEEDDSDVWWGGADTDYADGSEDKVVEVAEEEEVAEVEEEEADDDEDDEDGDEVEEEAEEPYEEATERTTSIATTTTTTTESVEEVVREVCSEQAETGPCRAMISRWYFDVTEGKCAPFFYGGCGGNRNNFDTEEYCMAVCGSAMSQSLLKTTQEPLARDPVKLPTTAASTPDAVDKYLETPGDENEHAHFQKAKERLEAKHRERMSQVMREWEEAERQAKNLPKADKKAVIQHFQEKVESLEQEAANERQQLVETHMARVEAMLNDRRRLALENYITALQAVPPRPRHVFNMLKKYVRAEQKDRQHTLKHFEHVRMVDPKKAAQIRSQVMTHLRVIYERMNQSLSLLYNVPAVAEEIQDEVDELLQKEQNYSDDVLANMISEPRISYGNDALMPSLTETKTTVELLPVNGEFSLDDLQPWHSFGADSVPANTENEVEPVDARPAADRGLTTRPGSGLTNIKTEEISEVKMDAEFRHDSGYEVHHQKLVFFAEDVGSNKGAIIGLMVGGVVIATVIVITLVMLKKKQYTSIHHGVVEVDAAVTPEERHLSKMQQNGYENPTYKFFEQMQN

[12] = molecular target: Amyloid-beta precursor protein (Homo sapiens) (UniProt P05067); assay: Inhibition of soluble amyloid beta40 (unknown origin) aggregation assessed as inhibition of fibril elongation by measuring fold reduction in elongation ratio at 10 uM measured after 24 hrs by ThT fluorescence based assay
[13] = tested on: Mus musculus; assay: (§1) Cognitive enhancing activity in Albino Swiss (CD-1) mouse model of scopolamine induced cognitive dysfunction and amnesia assessed as prolongation of step-through latency in retention trail at 10 mg/kg, ip pretreated for 30 mins followed by scopolamine administration and measured after 30 mins by passive avoidance test; type: functional, organism-based; conditions: time 60.0 min
[14] = molecular target: Amyloid-beta precursor protein (Homo sapiens) (UniProt P05067); assay: Inhibition of soluble amyloid beta40 (unknown origin) aggregation assessed as time of half-aggregation at 10 uM measured after 24 hrs by ThT fluorescence based assay (reference value: […] min)
[15] = molecular target: T3, Sodium- and chloride-dependent GABA transporter 1; assay: Inhibition of mouse GAT1 transfected in HEK293 cells assessed as reduction in [3H]-GABA uptake preincubated for 25 mins followed by [3H]-GABA addition and measured after 4 mins by liquid scintillation counting analysis; type: cell-based; conditions: read-out: pIC50 (converted)
[16] = molecular target: Amyloid-beta precursor protein (Homo sapiens) (UniProt P05067); assay: Inhibition of soluble amyloid beta40 (unknown origin) aggregation assessed as elongation constant at 10 uM measured after 24 hrs by ThT fluorescence based assay (reference value: […] /M/min)
[17] = molecular target: T1, GABA transporter 4; assay: Inhibition of mouse GAT4 transfected in HEK293 cells assessed as reduction in [3H]-GABA uptake preincubated for 25 mins followed by [3H]-GABA addition and measured after 4 mins by liquid scintillation counting analysis; type: cell-based; conditions: read-out: pIC50 (converted)
[18] = molecular target: Amyloid-beta precursor protein (Homo sapiens) (UniProt P05067); assay: Inhibition of soluble amyloid beta40 (unknown origin) aggregation assessed as nucleation constant at 10 uM measured after 24 hrs by ThT fluorescence based assay (reference value: […] 10^-4/min)
[19] = Inhibition of mouse GAT3 transfected in HEK293 cells assessed as reduction in [3H]-GABA uptake preincubated for 25 mins followed by [3H]-GABA addition and measured after 4 mins by liquid scintillation counting analysis; type: cell-based; conditions: HEK293; read-out: pIC50 (converted)
[20] = molecular target: Amyloid-beta precursor protein (Homo sapiens) (UniProt P05067); assay: Inhibition of soluble amyloid beta40 (unknown origin) aggregation at 10 uM measured after 24 hrs by ThT fluorescence based assay relative to control
[21] = tested on: Mus musculus; assay: as §1, with “acquisition phase” for “retention trail”; type: functional, organism-based; conditions: time 60.0 min
[22] = molecular target: Amyloid-beta precursor protein (Homo sapiens) (UniProt P05067); assay: Inhibition of soluble amyloid beta40 (unknown origin) aggregation assessed as lag time of amyloid polymerization at 10 uM measured after 24 hrs by ThT fluorescence based assay (reference value: […] min)
[23] = tested on: HepG2; assay: Cytotoxicity against human HepG2 cells assessed as reduction in cell viability at 0.1 to 1 uM incubated for 72 hrs by MTS assay; type: toxicity, cell-based; conditions: hepg2, 72 h, dose 0.1-1 µM
[24] = molecular target: Beta-secretase 1 (Homo sapiens, UniProt P56817)
Beta-secretase 1, sequence (P56817 whole entry): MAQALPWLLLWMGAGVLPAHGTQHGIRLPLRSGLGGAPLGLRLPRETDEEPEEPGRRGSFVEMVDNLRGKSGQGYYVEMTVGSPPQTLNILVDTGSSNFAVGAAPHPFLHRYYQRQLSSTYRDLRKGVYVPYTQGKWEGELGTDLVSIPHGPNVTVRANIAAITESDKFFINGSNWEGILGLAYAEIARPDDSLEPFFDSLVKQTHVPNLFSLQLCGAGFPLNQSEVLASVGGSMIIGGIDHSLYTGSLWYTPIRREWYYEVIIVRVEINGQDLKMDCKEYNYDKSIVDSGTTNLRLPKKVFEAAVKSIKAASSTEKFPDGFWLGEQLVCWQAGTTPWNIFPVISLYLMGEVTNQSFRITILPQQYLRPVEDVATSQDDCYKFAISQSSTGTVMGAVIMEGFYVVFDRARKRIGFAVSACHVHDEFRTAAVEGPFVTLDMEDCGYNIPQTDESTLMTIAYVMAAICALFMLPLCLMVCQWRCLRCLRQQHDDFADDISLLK

[25] = molecular target: Amyloid-beta precursor protein (Homo sapiens) (UniProt P05067); assay: Inhibition of amyloid beta40 (unknown origin) aggregation at 10 uM measured every 5 mins by ThT fluorescence based assay relative to control
[26] = molecular target: Amyloid-beta precursor protein (Homo sapiens) (UniProt P05067); assay: Inhibition of soluble amyloid beta40 (unknown origin) aggregation assessed as end time of amyloid polymerization at 10 uM measured after 24 hrs by ThT fluorescence based assay (reference value: […] min)
[27] = tested on: HEK293; assay: Cytotoxicity against HEK293 cells assessed as reduction in cell viability at 0.1 to 1 uM incubated for 72 hrs by MTS assay; type: toxicity, cell-based; conditions: human, hek293, 72 h, dose 0.1-1 µM
[28] = tested on: Mus musculus; assay: Cognitive enhancing activity in Albino Swiss (CD-1) mouse model of scopolamine induced memory deficits and amnesia assessed as increase in discrimination index at 30 mg/kg, ip pretreated for 30 mins followed by scopolamine administration and measured after 30 mins by Novel object recognition test; type: functional, organism-based; conditions: time 60.0 min
[29] = molecular target: Acetylcholinesterase (Electrophorus electricus) (UniProt O42275); assay: Inhibition of electric eel AChE using acetylthiocholine iodide as substrate at 10 uM preincubated for 5 mins followed by substrate addition and measured after 5 mins by DTNB reagent based Ellman's method relative to control; conditions: time 10.0 min
Acetylcholinesterase (Electrophorus electricus), sequence (O42275 24-633 limits assumed): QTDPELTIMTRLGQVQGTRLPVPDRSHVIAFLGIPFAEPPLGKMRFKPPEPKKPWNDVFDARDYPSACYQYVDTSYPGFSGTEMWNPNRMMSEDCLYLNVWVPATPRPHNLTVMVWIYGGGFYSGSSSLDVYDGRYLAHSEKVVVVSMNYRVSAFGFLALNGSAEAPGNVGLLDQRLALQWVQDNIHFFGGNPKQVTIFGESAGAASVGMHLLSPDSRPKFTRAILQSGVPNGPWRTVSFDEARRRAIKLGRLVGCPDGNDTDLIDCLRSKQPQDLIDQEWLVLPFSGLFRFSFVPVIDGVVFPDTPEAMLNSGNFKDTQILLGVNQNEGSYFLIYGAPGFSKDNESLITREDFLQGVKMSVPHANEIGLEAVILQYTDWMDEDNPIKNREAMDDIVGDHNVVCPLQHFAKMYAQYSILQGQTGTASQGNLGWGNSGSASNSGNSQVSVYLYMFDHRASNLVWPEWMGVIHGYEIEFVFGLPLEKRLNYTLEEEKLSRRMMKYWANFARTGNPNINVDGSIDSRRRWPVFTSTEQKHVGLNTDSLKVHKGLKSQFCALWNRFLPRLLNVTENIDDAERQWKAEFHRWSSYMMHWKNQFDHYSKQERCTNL

[30] = molecular target: Sodium- and chloride-dependent GABA transporter 1 (Mus musculus) (UniProt P31648); assay: Inhibition of NO 711 marker binding to mouse GAT1 assessed as residual activity at 100 uM by LC-ESI-MS/MS based competitive MS binding assay relative to control
[31] = tested on: Mus musculus; assay: as §1, with “30” for “10”; type: functional, organism-based; conditions: time 60.0 min
[32] = tested on: Mus musculus; assay: as §1, with “acquisition phase” for “retention trail”, “30” for “10”; type: functional, organism-based; conditions: time 60.0 min
[33] = molecular target: Amyloid-beta precursor protein (Homo sapiens) (UniProt P05067); assay: Inhibition of soluble amyloid beta40 (unknown origin) aggregation assessed as fold reduction in nucleation ratio at 10 uM measured after 24 hrs by ThT fluorescence based assay
[34] = tested on: Mus musculus; assay: as §1, with “10 to 30” for “10”; type: functional, organism-based; conditions: dose 10-30 mg/kg, time 60.0 min
[35] = molecular target: T3, Sodium- and chloride-dependent GABA transporter 1; assay: Inhibition of NO 711 marker binding to mouse GAT1 by LC-ESI-MS/MS based competitive MS binding assay

SMILES | pIC50 [1] | pIC50 [4] | IC50 [7] [µM] | pIC50 [10] | inhibition [11] [%] | fold change (FC) [12] | T1/2 [14] [h] | IC50 [15] [µM] | K [16] [M⁻¹ s⁻¹] | IC50 [17] [µM] | K [18] | IC50 [19] [µM] | inhibition [20] [%] | TIME [22] [h] | Activity [23] | pIC50 [24] | inhibition [25] [%] | TIME [26] [h] | Activity [27] | Activity [28] | further results
O=C(O)C1=CN(CC/C=C/c2ccccc2-c2ccc(Cl)cc2Cl)CCC1 | 4.20 | 7.43 |  |  |  |  |  |  |  |  |  |  |  |  |  |  |  |  |  |  | Activity [2]: 73%; Activity [3]: 91%
O=C(O)C1=CN(CC/C=C/c2ccccc2-c2ccccc2)CCC1 | 3.54 | 7.21 |  |  |  |  |  |  |  |  |  |  |  |  |  |  |  |  |  |  | pIC50 [5]: 3.49; IC50 ([4]; read-out: pIC50 (converted)): 0.162 µM; pIC50 [6]: 3.87
CN(CCOCCn1c2ccccc2c2ccccc21)C(CCN)C(=O)NCc1ccccc1 (configuration not stated) |  |  | 15.8 | 6.76 | 31.7 | 2 | 1.44 | 30.9 | 117 | 25.1 | 1.34 10^-4/min | 15.1 | 78.6 | 0.792 | Non-Toxic | 5.03 | 78.9 | 2.09 | Non-Toxic | inactive | inhibition [8]: Active; inhibition [9]: Active; Activity [13]: inactive; Activity [21]: Active; inhibition [29]: < 10%; Activity [30]: 71%; Activity [31]: Active
CN(CCOCCN1c2ccccc2Sc2ccccc21)C(CCN)C(=O)NCc1ccc(Cl)cc1 (configuration not stated) |  |  | 12.3 | 6.25 | 34.6 | 2 | 4.68 | 9.77 | 74.1 | 12 | 4.04 10^-4/min | 6.31 | 85.5 | 2.91 | Non-Toxic | 5.80 | 98.5 | 6.46 | Non-Toxic | Active | Activity [32]: Active; fold change (FC) [33]: 11; Activity [34]: inactive; pKi [35]: 4.34; inhibition [29]: 42%

— ChEMBL document CHEMBL5335794, “Discovery of novel multifunctional ligands targeting GABA transporters, butyrylcholinesterase, β-secretase, and amyloid β aggregation as potential treatment of Alzheimer's disease” (Eur J Med Chem, 2023)
